Patent US20120165304A1, “6,7,8,9-Tetrahydro-5H-1,4,7,10a-tetraaza-cyclohept[f]indene derivatives, pharmaceutical compositions containing these compounds, their use and processes for preparing them” (BOEHRINGER INGELHEIM INTERNATIONAL GMBH, priority 2008, published 2012)

Target: human 5-HT2C receptor (Homo sapiens, UniProt P28335, I156V/I160V/N158S)
Assay: cell-based

Sequence of human 5-HT2C receptor (P28335 33-458 I156V/N158S/I160V limits assumed): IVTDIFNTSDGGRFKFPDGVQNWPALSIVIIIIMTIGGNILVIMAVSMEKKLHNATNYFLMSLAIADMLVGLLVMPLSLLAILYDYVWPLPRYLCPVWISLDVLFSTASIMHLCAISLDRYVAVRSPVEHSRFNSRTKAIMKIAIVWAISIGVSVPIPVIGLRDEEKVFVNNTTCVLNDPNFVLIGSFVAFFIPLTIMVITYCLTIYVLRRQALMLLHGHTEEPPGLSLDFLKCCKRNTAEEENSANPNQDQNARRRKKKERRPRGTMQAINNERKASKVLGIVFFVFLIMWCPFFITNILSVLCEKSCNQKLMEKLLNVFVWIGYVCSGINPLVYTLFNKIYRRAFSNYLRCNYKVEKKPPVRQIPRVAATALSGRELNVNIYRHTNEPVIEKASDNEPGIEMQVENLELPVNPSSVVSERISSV

FC(F)(F)c1cccc(N2CCN(c3c4c(nc5ccnn35)CCNCC4)CC2)c1 [Example 7.3]
EC50: 484 nM

FC(F)(F)c1ccnc(OC2CN(c3c4c(nc5ccnn35)CCNCC4)C2)c1 [Example 20.9]
EC50: 84 nM

O=C(C1CN(c2c3c(nc4ccnn24)CCNCC3)C1)N1CC2CC2(c2cccs2)C1 (stereo not shown) [Example 31.231]
EC50: 27 nM

CN1CCC2(CCN(c3c4c(nc5ccnn35)CCNCC4)CC2)C1=O [Example 1.66]
EC50: 1660 nM

Cc1ccc(OCC2CN(c3c4c(nc5ccnn35)CCNCC4)C2)c(F)c1F [Example 15.10]
EC50: 20 nM

c1ccc(CCn2c(C3CN(c4c5c(nc6ccnn46)CCNCC5)C3)nc3ccccc32)cc1 [Example 34.36]
EC50: 353 nM

Fc1ccc2[nH]c(C3CN(c4c5c(nc6ccnn46)CCNCC5)C3)nc2c1 [Example 34.14]
EC50: 369 nM

O=C(C1CN(c2c3c(nc4ccnn24)CCNCC3)C1)N1CCc2ccc(C(F)(F)F)cc21 [Example 31.157]
EC50: 34 nM

c1ccc(CC2CN(c3c4c(nc5ccnn35)CCNCC4)C2)nc1 [Example 18, 10-(3-Pyridin-2-ylmethyl-azetidin-1-yl)-6,7,8,9-tetrahydro-5H-1,4,7,10a-tetraaza-cyclohepta[f]indene]
EC50: 451 nM

CN(Cc1cccc(F)c1)C(=O)C1CN(c2c3c(nc4ccnn24)CCNCC3)C1 [Example 31.125]
EC50: 38 nM

C#CC(C)NC(=O)C1CN(c2c3c(nc4ccnn24)CCNCC3)C1 (stereo not shown) [Example 37.109]
EC50: 79 nM

O=C(NCC(F)(F)F)C1CN(c2c3c(nc4ccnn24)CCNCC3)C1 [Example 37.94]
EC50: 228 nM

c1cc2nc3c(c(N4CCOCC4)n2n1)CCNCC3 [Example 7, 10-Morpholin-4-yl-6,7,8,9-tetrahydro-5H-1,4,7,10a-tetraaza-cyclohepta[f]indene]
EC50: 2580 nM

Brc1cnn2c(N3CC(Oc4ccccc4)C3)c3c(nc12)CCNCC3 [Example 2.1]
EC50: 7 nM

O=C(C1CN(c2c3c(nc4ccnn24)CCNCC3)C1)N1C2CCCCC1CCC2 [Example 31.158]
EC50: 1230 nM

Brc1cnn2c(N3CCC3)c3c(nc12)CCNCC3 [Example 2, 10-Azetidin-1-yl-3-bromo-6,7,8,9-tetrahydro-5H-1,4,7,10a-tetraaza-cyclohepta[f]indene]
EC50: 4 nM

Cc1cnn2c(N3CC(C(=O)N(C)Cc4ccc(C#N)cc4)C3)c3c(nc12)CCNCC3 [Example 31.250]
EC50: 9 nM

CN1CCc2nc3ccnn3c(N3CC(C(=O)N4CCC(N(C)C)CC4)C3)c2CC1 [Example 36.5]
EC50: 51 nM

C[C@@H](c1ccccc1)N(C)C(=O)C1CN(c2c3c(nc4ccnn24)CCNCC3)C1 [Example 31.91]
EC50: 2010 nM

CN(Cc1ccc(Cl)cc1)C(=O)C1CN(c2c3c(nc4c(Br)cnn24)CCNCC3)C1 [Example 31.141]
EC50: 87 nM

CN(C)C1CCN(C(=O)C2CN(c3c4c(nc5ccnn35)CCNCC4)C2)CC1 [Example 37.2]
EC50: 1 nM

CN1CCc2nc3ccnn3c(N3CC(C(=O)N[C@H]4CC[C@H](N(C)C)CC4)C3)c2CC1 [Example 36.16]
EC50: 282 nM

O=C(NC1CCC(F)(F)CC1)C1CN(c2c3c(nc4ccnn24)CCNCC3)C1 [Example 37.47]
EC50: 126 nM

Fc1ccc(OCC2CN(c3c4c(nc5ccnn35)CCNCC4)C2)cc1 [Example 15, 10-[3-(4-Fluoro-phenoxymethyl)-azetidin-1-yl]-6,7,8,9-tetrahydro-5H-1,4,7,10a-tetraaza-cyclohepta[f]indene]
EC50: 43 nM

COc1ccc2c(c1)CCN2C(=O)C1CN(c2c3c(nc4c(C)cnn24)CCNCC3)C1 [Example 31.247]
EC50: 28 nM

CCOC1CN(c2c3c(nc4ccnn24)CCNCC3)C1 [Example 20.2]
EC50: 658 nM

CC1(C)CCC(NC(=O)C2CN(c3c4c(nc5ccnn35)CCNCC4)C2)CC1 [Example 37.53]
EC50: 20 nM

Cc1ccc(OC2CN(c3c4c(nc5ccnn35)CCNCC4)C2)cc1 [Example 35.45]
EC50: 129 nM

Cn1c(C2CN(c3c4c(nc5ccnn35)CCNCC4)C2)nc2ccc(Cl)cc21 [Example 34.6]
EC50: 65 nM

CN1CCc2nc3ccnn3c(N3CC(C(=O)NC4CC(C)(C)N(C)C(C)(C)C4)C3)c2CC1 [Example 36.25]
EC50: 202 nM

FC(F)(F)c1cccc(OC2CN(c3c4c(nc5ccnn35)CCNCC4)C2)c1 [Example 1.7]
EC50: 42 nM

COc1cccc(OCC2CN(c3c4c(nc5ccnn35)CCNCC4)C2)c1 [Example 15.20]
EC50: 26 nM

Fc1ccc(C(F)(F)F)cc1OC1CN(c2c3c(nc4ccnn24)CCNCC3)C1 [Example 35.36]
EC50: 90 nM

O=C(C1CN(c2c3c(nc4ccnn24)CCNCC3)C1)N1CCc2ccc(Br)cc2C1 [Example 31.209]
EC50: 95 nM

CN(CCc1ccccc1)C(=O)C1CN(c2c3c(nc4ccnn24)CCNCC3)C1 [Example 31.61]
EC50: 176 nM

O=C(C1CN(c2c3c(nc4ccnn24)CCNCC3)C1)N1CCOCC1 [Example 31.17]
EC50: 276 nM

O=C(C1CN(c2c3c(nc4c(Br)cnn24)CCNCC3)C1)N1CCC2(CCCCC2)C1 [Example 31.134]
EC50: 117 nM

CC(C)C(C)NC(=O)C1CN(c2c3c(nc4ccnn24)CCNCC3)C1 (stereo not shown) [Example 37.77]
EC50: 95 nM

COc1cccc(COC2CN(c3c4c(nc5ccnn35)CCNCC4)C2)c1 [Example 20.13]
EC50: 347 nM

CC(C)CN1CCN(C(=O)C2CN(c3c4c(nc5ccnn35)CCNCC4)C2)CC1 [Example 37.15]
EC50: 3 nM

COC[C@@H]1CCCN1c1c2c(nc3ccnn13)CCNCC2 [Example 1.11]
EC50: 504 nM

CN1CCc2nc3ccnn3c(N3CC(C(=O)N4CCCNCC4)C3)c2CC1 [Example 36.59]
EC50: 173 nM

CC(=O)N(C)C1CCN(C(=O)C2CN(c3c4c(nc5ccnn35)CCN(C)CC4)C2)CC1 [Example 36.31]
EC50: 187 nM

O=C(C1CN(c2c3c(nc4ccnn24)CCNCC3)C1)N1CCCCCC1 [Example 31.142]
EC50: 186 nM

Brc1cnn2c(N3CCC(c4ccccc4)C3)c3c(nc12)CCNCC3 (stereo not shown) [Example 2.2]
EC50: 56 nM

O=C(C1CN(c2c3c(nc4ccnn24)CCNCC3)C1)N1CCC(F)CC1 [Example 31.206]
EC50: 146 nM

O=C(C1CN(c2c3c(nc4ccnn24)CCNCC3)C1)N1CCC(c2cccc(Cl)c2)CC1 [Example 31.111]
EC50: 56 nM

CC1CN(C(=O)C2CN(c3c4c(nc5ccnn35)CCNCC4)C2)CCO1 (stereo not shown) [Example 31.34]
EC50: 91 nM

COCC1(CNC(=O)C2CN(c3c4c(nc5ccnn35)CCNCC4)C2)CCCC1 [Example 37.69]
EC50: 73 nM

COc1cccc(N(C)C(=O)C2CN(c3c4c(nc5ccnn35)CCNCC4)C2)c1 [Example 31.55]
EC50: 600 nM

FC(F)(F)c1cccnc1OC1CN(c2c3c(nc4ccnn24)CCNCC3)C1 [Example 20.12]
EC50: 959 nM

COc1ccc2c(c1)CCN2C(=O)C1CN(c2c3c(nc4ccnn24)CCNCC3)C1 [Example 31.218]
EC50: 40 nM

CN(C(=O)C1CN(c2c3c(nc4ccnn24)CCNCC3)C1)C1CCCc2ccccc21 (stereo not shown) [Example 31.171]
EC50: 967 nM

O=C(C1CN(c2c3c(nc4ccnn24)CCNCC3)C1)N1CCC2(CCOC2)CC1 [Example 31.57]
EC50: 37 nM

O=C(C1CN(c2c3c(nc4ccnn24)CCNCC3)C1)N1CCC(c2ccncc2)CC1 [Example 31.182]
EC50: 9 nM

CC(c1ccccc1)n1c(C2CN(c3c4c(nc5ccnn35)CCNCC4)C2)nc2cc(Cl)ccc21 (stereo not shown) [Example 34.37]
EC50: 2380 nM

O=C(NCCF)C1CN(c2c3c(nc4ccnn24)CCNCC3)C1 [Example 37.107]
EC50: 91 nM

c1cc2c3c(cccc3c1)CN(c1c3c(nc4ccnn14)CCNCC3)C2 [Example 1.50]
EC50: 924 nM

O=C(C1CN(c2c3c(nc4ccnn24)CCNCC3)C1)N1CCC(F)(F)C1 [Example 31.148]
EC50: 19 nM

c1ccc(OCC2CN(c3c4c(nc5ccnn35)CCNCC4)C2)cc1 [Example 15.17]
EC50: 31 nM

Cc1ccc(CN(C)C(=O)C2CN(c3c4c(nc5ccnn35)CCNCC4)C2)s1 [Example 31.24]
EC50: 53 nM

CN(Cc1ccccc1Cl)C(=O)C1CN(c2c3c(nc4ccnn24)CCNCC3)C1 [Example 31.37]
EC50: 68 nM

O=C(C1CN(c2c3c(nc4ccnn24)CCNCC3)C1)N1CCc2cccc(Br)c2C1 [Example 31.207]
EC50: 43 nM

CC(C)N(C)C(=O)C1CN(c2c3c(nc4ccnn24)CCNCC3)C1 [Example 31.6]
EC50: 5940 nM
